According to patent US8362067B2, “3-aminoalkyl-1,3-dihydro-2H-indol-2-one derivatives, preparation thereof and therapeutic use thereof” (Sanofi, priority 2008, dated 2013):
Structures can show the parent of a compound that is named as a salt.

| Compound | melting point [°C] |
| --- | --- |
| CCOc1ccc(S(=O)(=O)N2C(=O)C(CCCN3CCC(O)CC3)(c3ccccc3F)c3cc(Cl)c(OC)cc32)cc1OC (centres unmarked) | 102 |
| CCOc1ccc(S(=O)(=O)N2C(=O)C(CCCN3CCOCC3)(c3ccccc3F)c3cc(Cl)c(OC)cc32)cc1OC (centres unmarked) | 153 |
| COc1cc2c(cc1C)C(CCCN1CCN(C)CC1)(c1ccccc1F)C(=O)N2S(=O)(=O)c1ccc(OC(C)C)cc1 (centres unmarked) | 70 |
| COc1cc2c(cc1F)C(CCCN1CCN(C)CC1)(c1ccccc1F)C(=O)N2S(=O)(=O)c1ccc(OC(C)C)cc1 (centres unmarked) | 72 |
| COc1ccc(S(=O)(=O)N2C(=O)C(CCCN3CCN(C)CC3)(c3ccccc3F)c3cc(Cl)c(OC)cc32)c(OC)c1 (centres unmarked) | 123 |
| COc1cc2c(cc1OC)C(CCCN1CCN(C)CC1)(c1ccccc1F)C(=O)N2S(=O)(=O)c1ccc(OC(C)C)c(F)c1 (centres unmarked) | 74 |
| COc1cc2c(cc1F)C(CCCN1CCN(C)CC1)(c1ccccc1F)C(=O)N2S(=O)(=O)c1ccc(OC(C)C)c(F)c1 (centres unmarked) | 72 |
| COc1ccc(S(=O)(=O)N2C(=O)C(CCCN3CCN(C)CC3)(c3ccccc3F)c3cc(OC)c(OC)cc32)cc1C (centres unmarked) | 78 |
| COC(=O)c1ccc(F)c(C2(CCCN3CCN(C)CC3)C(=O)N(S(=O)(=O)c3ccc(OC(C)C)cc3)c3cc(OC)c(Cl)cc32)c1 (centres unmarked) | 100 |
| COc1cc2c(cc1Cl)C(CCCN1CCN(C)CC1)(c1cc(CO)ccc1F)C(=O)N2S(=O)(=O)c1ccc(OC(C)C)cc1 (centres unmarked) | 97 |
| CCN(CC)C(=O)Nc1ccc(S(=O)(=O)N2C(=O)C(CCCN(C)C)(c3ccccc3F)c3cc(C)c(OC)cc32)cc1C (centres unmarked) | 98 |
| CCN(CC)C(=O)Nc1ccc(S(=O)(=O)N2C(=O)C(CCCN(C)C)(c3ccccc3F)c3cc(C)c(OC)cc32)cc1F (centres unmarked) | 82 |
| COc1cc2c(cc1Cl)C(CCCN1CCN(C)CC1)(c1ccccc1F)C(=O)N2S(=O)(=O)c1ccc(OC)c(OC)c1 (centres unmarked) | 90 |
| COc1cc2c(cc1Cl)C(CCCN1CCN(C)CC1)(c1ccccc1F)C(=O)N2S(=O)(=O)c1ccc(O)cc1 (centres unmarked) | 169 |
| COc1cc2c(cc1Cl)C(CCCN1CCN(C)CC1)(c1ccccc1F)C(=O)N2S(=O)(=O)c1ccc(OC(F)(F)C(F)F)cc1.Cl (centres unmarked) | 164 |
| COc1ccc(S(=O)(=O)N2C(=O)C(CCCN3CCCCC3)(c3ccccc3F)c3cc(Cl)c(OC)cc32)c(OC)c1 (centres unmarked) | 105 |

| Compound | melting point [°C] |
| --- | --- |
| CCCCOc1ccc(S(=O)(=O)N2C(=O)C(CCCN3CCN(C)CC3)(c3ccccc3F)c3cc(Cl)c(OC)cc32)cc1 (centres unmarked) (as salt: HCl) | 156 |
| COc1cc2c(cc1Cl)C(CCCN1CCCN(C)CC1)(c1ccccc1F)C(=O)N2S(=O)(=O)c1ccc(OC(C)C)cc1 (centres unmarked) (as salt: HCl) | 202 |
| COc1cc2c(cc1Cl)C(CCCCCN(C)C)(c1ccccc1F)C(=O)N2S(=O)(=O)c1ccc(OC(C)C)cc1 (centres unmarked) (as salt: HCl) | 125 |
| COc1cc2c(cc1Cl)C(CCCCCN1CCCCC1)(c1ccccc1F)C(=O)N2S(=O)(=O)c1ccc(OC(C)C)cc1 (centres unmarked) (as salt: HCl) | 203 |
| COc1cc2c(cc1Cl)C(CCCN1CC[C@H](N)C1)(c1ccccc1F)C(=O)N2S(=O)(=O)c1ccc(OC(C)C)cc1 (stereo partly drawn) (as salt: HCl) [Compound No. 5, 3-{3-[(3S)-3-aminopyrrolidin-1-yl]propyl}-5-chloro-3-(2-fluorophenyl)-1-[(4-isopropoxyphenyl)sulfonyl]-6-methoxy-1,3-dihydro-2H-indol-2-one] | 206 |
| CCOc1ccc(S(=O)(=O)N2C(=O)C(CCCN3CC[C@@H](N)C3)(c3ccccc3F)c3cc(Cl)c(OC)cc32)cc1OC (stereo partly drawn) (as salt: HCl) [Compound No. 6, 3-{3-[(3R)-3-aminopyrrolidin-1-yl]propyl}-5-chloro-1-[(4-ethoxy-3-methoxy-phenyl)sulfonyl]-3-(2-fluorophenyl)-6-methoxy-1,3-dihydro-2H-indol-2-one] | 210 |
| CCOc1ccc(S(=O)(=O)N2C(=O)C(CCCN3CC[C@H](N)C3)(c3ccccc3F)c3cc(Cl)c(OC)cc32)cc1OC (stereo partly drawn) (as salt: HCl) [Compound No. 7, 3-{3-[(3S)-3-aminopyrrolidin-1-yl]propyl}-5-chloro-1-[(4-ethoxy-3-methoxy-phenyl)sulfonyl]-3-(2-fluorophenyl)-6-methoxy-1,3-dihydro-2H-indol-2-one] | 238 |
| COc1cccc(S(=O)(=O)N2C(=O)C(CCCN3CCN(C)CC3)(c3ccccc3F)c3cc(Cl)c(OC)cc32)c1 (centres unmarked) (as salt: HCl) [Compound No. 38] | 147 |
| COc1cc2c(cc1Cl)C(CCCN1CCNCC1)(c1ccccc1F)C(=O)N2S(=O)(=O)c1ccc(O)cc1 (centres unmarked) (as salt: HCl) [Compound No. 46] | 292 |
| COc1ccc(S(=O)(=O)N2C(=O)C(CCCN3CCNCC3)(c3ccccc3F)c3cc(Cl)c(OC)cc32)c(OC)c1 (centres unmarked) (as salt: HCl) [compound 16, 5-chloro-1-[(2,4-dimethoxyphenyl)sulfonyl]-3-(2-fluorophenyl)-6-methoxy-3-(3-(piperazin-1-yl)propyl)-1,3-dihydro-2H-indol-2-one] | 243 |
| CCOc1ccc(S(=O)(=O)N2C(=O)C(CCCN3CCNCC3)(c3ccccc3F)c3cc(Cl)c(OC)cc32)cc1OC (centres unmarked) (as salt: HCl) [compound 18, 5-chloro-1-[(4-ethoxy-3-methoxyphenyl)sulfonyl]-3-(2-fluorophenyl)-6-methoxy-3-(3-(piperazin-1-yl)propyl)-1,3-dihydro-2H-indol-2-one] | 220 |
| COc1cc2c(cc1Cl)C(CCCN1CCNCC1)(c1ccccc1F)C(=O)N2S(=O)(=O)c1ccc(OC)c(OC)c1 (centres unmarked) (as salt: HCl) [compound 19, 5-chloro-1-[(3,4-dimethoxyphenyl)sulfonyl]-3-(2-fluorophenyl)-6-methoxy-3-(3-(piperazin-1-yl)propyl)-1,3-dihydro-2H-indol-2-one] | 190 |
| COc1cc2c(cc1Cl)C(CCCN1CCNCC1)(c1ccccc1F)C(=O)N2S(=O)(=O)c1ccc(C)c(C)c1 (centres unmarked) (as salt: HCl) [compound 20, 5-chloro-1-[(3,4-dimethylphenyl)sulfonyl]-3-(2-fluorophenyl)-6-methoxy-3-(3-(piperazin-1-yl)propyl)-1,3-dihydro-2H-indol-2-one] | 192 |
| COc1ccc(S(=O)(=O)N2C(=O)C(CCCN3CCNCC3)(c3ccccc3F)c3cc(Cl)c(OC)cc32)cc1C (centres unmarked) (as salt: HCl) [compound 21, 5-chloro-3-(2-fluorophenyl)-6-methoxy-1-[(4-methoxy-3-methylphenyl)sulfonyl]-3-(3-(piperazin-1-yl)propyl)-1,3-dihydro-2H-indol-2-one] | 234 |
| CCOc1ccc(S(=O)(=O)N2C(=O)C(CCCN3CCNCC3)(c3ccccc3F)c3cc(Cl)c(OC)cc32)cc1 (centres unmarked) (as salt: HCl) [compound 22, 5-chloro-1-[(4-ethoxyphenyl)sulfonyl]-3-(2-fluorophenyl)-6-methoxy-3-(3-(piperazin-1-yl)propyl)-1,3-dihydro-2H-indol-2-one] | 213 |
| CCOc1ccc(S(=O)(=O)N2C(=O)C(CCCN3CCNCC3)(c3ccccc3F)c3cc(Cl)c(OC)cc32)cc1C (centres unmarked) (as salt: HCl) [compound 23, 5-chloro-1-[(4-ethoxy-3-methylphenyl)sulfonyl]-3-(2-fluorophenyl)-6-methoxy-3-(3-(piperazin-1-yl)propyl)-1,3-dihydro-2H-indol-2-one] | 226 |
